From patent US20220193072A1, “METHODS OF TREATING BREAST CANCER WITH TETRAHYDRONAPHTHALENE DERIVATIVES AS ESTROGEN RECEPTOR DEGRADER” (Arvinas Operations, Inc., priority 2020, published 2022)
Where “and” joins values, the source holds several entries; their conditions need not be identical. Equal entries are not always repeated. Where two headings read alike, the source gives them in different places.

Key:
rat uterine ER = target: T1, rat uterine ER (Rattus norvegicus, UniProt P06211); assay: Immature rat uterotrophic model; type: in vivo
T1 construct: from tissue; host or cells: uterus of immature rats
T1 sequence (P06211 1-600): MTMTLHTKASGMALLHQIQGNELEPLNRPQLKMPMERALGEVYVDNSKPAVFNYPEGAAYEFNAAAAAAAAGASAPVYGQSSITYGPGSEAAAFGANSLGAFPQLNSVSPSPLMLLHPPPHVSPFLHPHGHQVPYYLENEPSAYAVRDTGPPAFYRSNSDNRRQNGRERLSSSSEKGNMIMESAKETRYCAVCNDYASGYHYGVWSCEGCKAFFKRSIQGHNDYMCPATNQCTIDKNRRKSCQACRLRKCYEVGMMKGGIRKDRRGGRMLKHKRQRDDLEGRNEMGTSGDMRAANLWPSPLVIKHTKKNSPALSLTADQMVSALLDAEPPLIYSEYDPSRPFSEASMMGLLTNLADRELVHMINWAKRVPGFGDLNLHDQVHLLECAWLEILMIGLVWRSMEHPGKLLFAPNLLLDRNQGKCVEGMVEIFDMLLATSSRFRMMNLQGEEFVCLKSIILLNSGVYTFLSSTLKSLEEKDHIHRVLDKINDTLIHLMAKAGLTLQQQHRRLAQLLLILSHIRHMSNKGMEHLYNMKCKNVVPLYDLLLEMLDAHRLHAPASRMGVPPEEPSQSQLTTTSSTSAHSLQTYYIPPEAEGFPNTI

[1] = Preclinical pharmacokinetics, oral once daily; details: in vivo, total drug concentrations; for AUC(0-t): read-out: Mean AUC0-24
Source text: The pharmacokinetic results are shown below in Table 1.

[2] = 28-day oral toxicology study in rats; type: in vivo; details: oral once daily 28 days
[3] = 28-day oral toxicology study in dogs; type: in vivo; details: oral once daily 28 days
MCF7 xenograft [4] = assay: MCF7 orthotopic xenograft, combination with mTOR inhibitor everolimus; type: in vivo, NOD/SCID mice
Experimental: NOD/SCID female mice (Charles River, 6-7 weeks old upon arrival) were implanted with 17b-estradiol 0.72 mg 90-day pellets. The next day, each mouse was implanted with 5×10^6 MCF7 cells/[…] per in the axial mammary fat pad. Compound administration was initiated once the tumors reached 175-200 mm^3. Diet was supplemented with peanut butter to help maintain body weights. […] (FIG. 28 and Table 13).
Error bars represent standard deviation.
The ratio of Tween 80 to PEG-400 is 0.02 g Tween 80 to 1 ml PEG-400. PEG-400 is added to a pre-aliquoted volume of Tween 80. • For everolimus: 10% DMSO, 90% (2% Tween 80, PEG 400) (DMSO/PEG/Tween) Sampling: tumors were measured twice weekly. Terminal sacrifice was ˜18 hr after last dose. Tumor volume calculation: Tumor Volume=(width×width×length)/2, where all measurements are in mm and the tumor volume is in mm^3. Tumor Growth Inhibition (TGI) calculation: TGI (%)

ER-dependent cell lines = assay: Cell proliferation of ER-dependent cell lines; type: cell-based
[5] = test system: tamoxifen-resistant MCF7 xenografts; assay: Tamoxifen-resistant MCF7 orthotopic xenograft tumor growth inhibition; type: in vivo, Nu/Nu mice
Experimental: Species: Ovariectomized Nu/Nu female mice. Animal handling: Axial mammary fat pad implantation of tamoxifen-resistant tumor fragment (from E45 passage. SC per mouse. Tamoxifen pellet (5 mg, 60-day release) was implanted under the same anesthesia as tumor fragment (pellet—dorsal; tumor—ventral).
Dosing: Oral (gavage), once a day for 28 days (QD×28)
Sampling: Tumors were measured twice weekly. Terminal sacrifice was ˜18 hr after last dose; tumors were harvested, divided, and flash frozen. ERα levels were determined by immunoblotting (see Appendix 1 for details).

MCF7 xenograft [6] = assay: Tumor growth inhibition in orthotopic MCF7/estradiol xenograft model, single agent; type: in vivo, NOD/SCID mice; details: for tumor growth inhibition (TGI): 28 days, vs vehicle
Experimental: Species: NOD/SCID female mice (Charles River, 6-7 weeks old upon arrival).
Animal handling: Axial mammary fat pad implantation of 5×10^6 MCF7 cells/200 per mouse (17β-estradiol 0.36 mg 90-day pellet implanted day before).
Tumor volumes were evaluated twice per week for twenty-eight days.
Sampling: Tumors were measured twice weekly. Terminal sacrifice was ˜18 hr after last dose; tumors were harvested, divided, and flash frozen. ERα levels were determined by immunoblotting.
Tumor volume calculation: Tumor Volume=(width×width×length)/2, where all measurements are in mm and the tumor volume is in mm^3.
Tumor Growth Inhibition (TGI) calculation: TGI (%)

MCF7 cells = assay: Luminescence-based MCF7 cell proliferation assay, dose-response matrix; details: 5 days (120 hours)
Experimental: MCF7 cells were seeded at a density of 2×10^4 cells in 200 μL of media per well in 2 technical replicate, 96-well black, clear-bottom plates and incubated overnight at 37° C. in a 5% CO2 incubator. […] DMSO was used as the vehicle control. The plates were then incubated for 5 days at 37° C. in a 5% CO2 incubator.
The plates were equilibrated to room temperature for approximately 30 minutes. 50 μL of Cell-Titer Glo (Promega) was added to all wells of the plates, covered with aluminum foil and shaken gently by hand for less than 1 minute. The plates were then incubated for 10 minutes at room temperature. Luminescence was recorded using Envision Multi Label Reader. To assess cell viability, luminescence values for drug-treated wells were normalized to average luminescence of vehicle (DMSO) wells to obtain percent viability relative to control cells. The data were analyzed with the Combenefit software.

[7] = Compound (I-c) 30 mg/kg oral QD x 26
[8] = Compound (I-c) 30 mg/kg oral QD x 28

SMILES: O=C1CC[C@H](N2Cc3cc(N4CCN(CC5CCN(c6ccc([C@@H]7c8ccc(O)cc8CC[C@@H]7c7ccccc7)cc6)CC5)CC4)ccc3C2=O)C(=O)N1 [Compound (I-c), (3S)-3-[5-[4-[[1-[4-[(1R,2S)-6-hydroxy-2-phenyl-tetralin-1-yl]phenyl]-4-piperidyl]methyl]piperazin-1-yl]-1-oxo-isoindolin-2-yl]piperidine-2,6-dione]
- degradation of rat uterine ER (rat uterine ER): degrades
- agonist activity (uterine weight) (rat uterine ER; FIG. 17: 30 mg/kg once a day oral): no agonist activity
- Cmax ([1]; 3 mg/kg oral once daily): 84 ng/mL
- AUC(0-t) ([1]; 3 mg/kg oral once daily): 658 ng·h/mL
- Cmax ([1]; 10 mg/kg oral once daily): 312 ng/mL
- AUC(0-t) ([1]; 10 mg/kg oral once daily): 2540 ng·h/mL
- Cmax ([1]; 30 mg/kg oral, single dose): 962 ng/mL
- AUC(0-t) ([1]; 30 mg/kg oral, single dose): 5720 ng·h/mL
- clinical signs of toxicity ([2]; doses up to 100 mg/kg/day): no clinical signs of toxicity
- effects on overall animal health or well-being ([2]; up to 100 mg/kg/day): no effects on the overall animal health or well-being
- clinical signs of toxicity ([3]; doses up to 90 mg/kg/day): no clinical signs of toxicity
- effects on overall animal health or well-being ([3]; up to 90 mg/kg/day): no effects on the overall animal health or well-being
- Day 26 Tumor Volume (mean ± SD) (MCF7 xenograft [4]; [7]): 169 ± 77 mm^3
- TGI (% vehicle) (MCF7 xenograft [4]; [7]): 102 % vehicle
- tumor growth inhibition (TGI) (MCF7 xenograft [4]; single agent 30 mg/kg oral once daily, 26 days): 102%
- cell proliferation of ER-dependent cell lines (ER-dependent cell lines): inhibits
- Day 28 Tumor volume (mean ± SD) [5, 8]: 361 ± 181 mm^3
- TGI (% vehicle) [5, 8]: 65 % vehicle
- tumor growth inhibition (TGI) ([5]; tamoxifen-resistant MCF7, 30 mg/kg/day oral, 28 days): 65%
- Day 28 Tumor volume (mean ± SD) (MCF7 xenograft [6]; 3 mg/kg oral QD x 28): 286 ± 206 mm^3
- TGI (% vehicle) (MCF7 xenograft [6]; 3 mg/kg oral QD x 28): 85 % vehicle
- tumor growth inhibition (TGI) (MCF7 xenograft [6]; 3 mg/kg oral once daily): 85%
- Day 28 Tumor volume (mean ± SD) (MCF7 xenograft [6]; 10 mg/kg oral QD x 28): 226 ± 118 mm^3
- TGI (% vehicle) (MCF7 xenograft [6]; 10 mg/kg oral QD x 28): 98 % vehicle
- tumor growth inhibition (TGI) (MCF7 xenograft [6]; 10 mg/kg oral once daily): 98% and 94%
- Day 28 Tumor volume (mean ± SD) (MCF7 xenograft [6]; 30 mg/kg oral QD x 28): 115 ± 79 mm^3
- TGI (% vehicle) (MCF7 xenograft [6]; 30 mg/kg oral QD x 28): 124 % vehicle
- tumor growth inhibition (TGI) (MCF7 xenograft [6]; 30 mg/kg oral once daily): 124%
- MCF7 cell proliferation, single agent (MCF7 cells): dose-dependent decrease
